ChEMBL document CHEMBL4507311, “Data for DCP probe A-1155463” (2021)

How the values were obtained:
[1] = molecular target: Dual specificity mitogen-activated protein kinase kinase 5 (Homo sapiens) (UniProt Q13163); conditions: Compound concentration 1000.0 nM
[2] = molecular target: Serine/threonine-protein kinase MRCK alpha (Homo sapiens) (UniProt Q5VT25); conditions: Compound concentration 1000.0 nM
[3] = molecular target: T1, Alpha-2A adrenergic receptor (Homo sapiens) (UniProt P08913); conditions: Compound concentration 10.0 uM
T1 sequence (whole entry): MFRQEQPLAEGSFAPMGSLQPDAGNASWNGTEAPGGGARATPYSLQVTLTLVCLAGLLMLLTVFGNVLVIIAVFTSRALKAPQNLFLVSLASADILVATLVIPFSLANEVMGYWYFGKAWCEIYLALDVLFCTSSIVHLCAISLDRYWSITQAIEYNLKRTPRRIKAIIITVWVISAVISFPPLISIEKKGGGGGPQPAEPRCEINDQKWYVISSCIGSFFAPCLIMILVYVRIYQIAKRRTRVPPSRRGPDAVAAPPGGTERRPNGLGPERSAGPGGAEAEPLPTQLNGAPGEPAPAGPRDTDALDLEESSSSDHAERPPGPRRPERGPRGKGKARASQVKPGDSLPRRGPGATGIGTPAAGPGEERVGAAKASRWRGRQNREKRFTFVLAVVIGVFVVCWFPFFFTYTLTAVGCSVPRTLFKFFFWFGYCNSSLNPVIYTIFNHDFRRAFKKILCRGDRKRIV

[4] = molecular target: Receptor-type tyrosine-protein kinase FLT3 (Homo sapiens) (UniProt P36888); conditions: Compound concentration 1000.0 nM
[5] = molecular target: Non-receptor tyrosine-protein kinase TYK2 (Homo sapiens) (UniProt P29597); conditions: Compound concentration 1000.0 nM
[6] = molecular target: Serine/threonine-protein kinase D1 (Homo sapiens) (UniProt Q15139); conditions: Compound concentration 1000.0 nM
[7] = test system: Mast/stem cell growth factor receptor Kit (Homo sapiens), P10721 [A829P]; conditions: Compound concentration 1000.0 nM
Chain of Mast/stem cell growth factor receptor Kit (Homo sapiens), P10721 [A829P] (P10721 whole entry A829P): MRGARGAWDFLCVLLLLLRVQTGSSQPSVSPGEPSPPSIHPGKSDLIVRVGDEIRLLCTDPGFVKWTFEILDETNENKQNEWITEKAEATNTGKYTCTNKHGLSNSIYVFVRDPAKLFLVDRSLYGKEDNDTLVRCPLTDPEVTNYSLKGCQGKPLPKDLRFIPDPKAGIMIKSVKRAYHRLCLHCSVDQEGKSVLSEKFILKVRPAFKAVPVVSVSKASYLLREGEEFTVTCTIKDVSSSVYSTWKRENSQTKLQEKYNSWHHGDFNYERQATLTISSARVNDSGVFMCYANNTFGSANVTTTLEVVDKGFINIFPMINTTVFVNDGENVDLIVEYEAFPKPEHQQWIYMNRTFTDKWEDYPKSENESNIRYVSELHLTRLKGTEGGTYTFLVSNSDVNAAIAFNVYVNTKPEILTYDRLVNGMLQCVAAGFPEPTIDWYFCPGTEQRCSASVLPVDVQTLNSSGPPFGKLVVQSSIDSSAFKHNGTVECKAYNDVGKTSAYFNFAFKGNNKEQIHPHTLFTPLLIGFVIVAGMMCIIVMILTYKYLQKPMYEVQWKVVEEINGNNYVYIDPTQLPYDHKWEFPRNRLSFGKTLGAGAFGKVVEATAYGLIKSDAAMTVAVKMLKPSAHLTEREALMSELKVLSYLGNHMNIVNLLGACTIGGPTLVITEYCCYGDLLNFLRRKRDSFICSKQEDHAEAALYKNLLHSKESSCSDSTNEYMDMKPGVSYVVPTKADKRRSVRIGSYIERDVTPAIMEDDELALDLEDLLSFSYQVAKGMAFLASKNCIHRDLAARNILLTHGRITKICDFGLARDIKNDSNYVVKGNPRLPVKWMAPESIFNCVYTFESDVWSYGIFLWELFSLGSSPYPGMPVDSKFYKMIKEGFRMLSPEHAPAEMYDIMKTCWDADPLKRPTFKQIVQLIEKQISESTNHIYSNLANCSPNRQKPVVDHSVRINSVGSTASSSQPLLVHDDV

[8] = molecular target: RAF proto-oncogene serine/threonine-protein kinase (Homo sapiens) (UniProt P04049); conditions: Compound concentration 1000.0 nM
[9] = molecular target: SRSF protein kinase 3 (Homo sapiens) (UniProt Q9UPE1); conditions: Compound concentration 1000.0 nM
[10] = molecular target: Serine/threonine-protein kinase 3 (Homo sapiens) (UniProt Q13188); conditions: Compound concentration 1000.0 nM
Chain of Serine/threonine-protein kinase 3 (Homo sapiens) (Q13188 whole entry, canonical isoform): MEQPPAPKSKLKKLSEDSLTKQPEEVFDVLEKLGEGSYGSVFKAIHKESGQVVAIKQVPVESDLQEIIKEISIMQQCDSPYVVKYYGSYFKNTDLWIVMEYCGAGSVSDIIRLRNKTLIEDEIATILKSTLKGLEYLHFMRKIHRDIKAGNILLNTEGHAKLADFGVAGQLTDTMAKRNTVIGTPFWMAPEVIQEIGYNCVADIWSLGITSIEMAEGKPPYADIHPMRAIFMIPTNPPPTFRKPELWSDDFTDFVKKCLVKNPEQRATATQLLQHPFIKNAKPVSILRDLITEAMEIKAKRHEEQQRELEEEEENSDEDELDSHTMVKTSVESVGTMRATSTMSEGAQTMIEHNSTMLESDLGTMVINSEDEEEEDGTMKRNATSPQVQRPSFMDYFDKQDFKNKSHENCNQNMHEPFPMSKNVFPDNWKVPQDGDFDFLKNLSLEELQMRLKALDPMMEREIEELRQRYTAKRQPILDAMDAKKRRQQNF

[11] = molecular target: Phosphorylase b kinase regulatory subunit alpha, liver isoform (Homo sapiens) (UniProt P46019); conditions: Compound concentration 1000.0 nM
[12] = molecular target: D(2) dopamine receptor (Homo sapiens) (UniProt P14416); conditions: Compound concentration 10.0 uM
[13] = molecular target: Homeodomain-interacting protein kinase 3 (Homo sapiens) (UniProt Q9H422); conditions: Compound concentration 1000.0 nM
[14] = molecular target: MAP/microtubule affinity-regulating kinase 4 (Homo sapiens) (UniProt Q96L34); conditions: Compound concentration 1000.0 nM
[15] = molecular target: Serine/threonine-protein kinase Chk1 (Homo sapiens) (UniProt O14757); conditions: Compound concentration 1000.0 nM
Chain of Serine/threonine-protein kinase Chk1 (Homo sapiens) (O14757 whole entry): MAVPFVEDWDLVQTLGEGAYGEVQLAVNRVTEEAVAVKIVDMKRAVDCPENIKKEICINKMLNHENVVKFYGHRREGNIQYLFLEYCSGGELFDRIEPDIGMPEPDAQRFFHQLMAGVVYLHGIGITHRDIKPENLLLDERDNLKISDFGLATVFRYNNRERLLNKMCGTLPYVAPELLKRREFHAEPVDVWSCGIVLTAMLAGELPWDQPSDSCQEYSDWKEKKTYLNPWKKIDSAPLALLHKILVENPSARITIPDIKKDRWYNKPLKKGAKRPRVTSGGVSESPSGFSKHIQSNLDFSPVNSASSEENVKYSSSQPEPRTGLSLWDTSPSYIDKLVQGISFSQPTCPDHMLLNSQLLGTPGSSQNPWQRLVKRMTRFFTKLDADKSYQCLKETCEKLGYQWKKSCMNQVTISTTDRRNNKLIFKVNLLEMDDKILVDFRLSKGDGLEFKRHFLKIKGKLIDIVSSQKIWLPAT

[16] = molecular target: Mitogen-activated protein kinase 11 (Homo sapiens) (UniProt Q15759); conditions: Compound concentration 1000.0 nM
[17] = molecular target: Protein kinase C iota type (Homo sapiens) (UniProt P41743); conditions: Compound concentration 1000.0 nM
[18] = molecular target: Microtubule-associated serine/threonine-protein kinase 1 (Homo sapiens) (UniProt Q9Y2H9); conditions: Compound concentration 1000.0 nM
[19] = molecular target: Activin receptor type-2B (Homo sapiens) (UniProt Q13705); conditions: Compound concentration 1000.0 nM
[20] = test system: Phosphatidylinositol 4,5-bisphosphate 3-kinase catalytic subunit alpha isoform (Homo sapiens), P42336 [H1047Y]; conditions: Compound concentration 1000.0 nM
Chain of Phosphatidylinositol 4,5-bisphosphate 3-kinase catalytic subunit alpha isoform (Homo sapiens), P42336 [H1047Y] (P42336 whole entry H1047Y, canonical isoform): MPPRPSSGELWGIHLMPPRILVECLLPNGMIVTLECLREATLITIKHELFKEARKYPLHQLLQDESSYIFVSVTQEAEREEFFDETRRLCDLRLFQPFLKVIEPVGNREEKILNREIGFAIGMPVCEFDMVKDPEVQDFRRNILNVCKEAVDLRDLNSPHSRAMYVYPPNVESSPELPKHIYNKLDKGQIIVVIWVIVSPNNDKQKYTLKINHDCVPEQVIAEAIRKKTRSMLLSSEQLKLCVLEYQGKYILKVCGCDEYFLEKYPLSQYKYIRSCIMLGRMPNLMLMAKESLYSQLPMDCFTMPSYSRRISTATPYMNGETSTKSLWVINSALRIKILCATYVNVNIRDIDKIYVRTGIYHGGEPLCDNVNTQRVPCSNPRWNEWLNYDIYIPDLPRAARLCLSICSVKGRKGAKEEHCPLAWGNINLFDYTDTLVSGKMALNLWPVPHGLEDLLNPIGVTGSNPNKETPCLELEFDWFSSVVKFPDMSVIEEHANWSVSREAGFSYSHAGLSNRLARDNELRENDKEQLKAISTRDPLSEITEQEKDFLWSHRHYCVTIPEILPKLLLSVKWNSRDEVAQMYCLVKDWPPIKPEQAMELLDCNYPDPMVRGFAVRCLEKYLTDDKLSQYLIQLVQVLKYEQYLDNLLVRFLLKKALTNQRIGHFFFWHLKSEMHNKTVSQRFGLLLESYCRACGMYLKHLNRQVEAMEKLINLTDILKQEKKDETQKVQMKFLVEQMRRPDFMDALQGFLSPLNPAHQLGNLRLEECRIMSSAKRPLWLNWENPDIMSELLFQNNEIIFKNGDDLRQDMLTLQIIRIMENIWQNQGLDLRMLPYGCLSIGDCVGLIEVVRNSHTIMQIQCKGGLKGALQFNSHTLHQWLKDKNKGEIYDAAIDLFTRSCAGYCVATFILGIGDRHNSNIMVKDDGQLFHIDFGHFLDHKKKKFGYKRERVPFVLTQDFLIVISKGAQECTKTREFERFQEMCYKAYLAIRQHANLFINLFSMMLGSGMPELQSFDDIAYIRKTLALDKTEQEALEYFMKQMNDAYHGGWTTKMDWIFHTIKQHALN

[21] = molecular target: D(3) dopamine receptor (Homo sapiens) (UniProt P35462); conditions: Compound concentration 10.0 uM
Chain of D(3) dopamine receptor (Homo sapiens) (P35462 whole entry): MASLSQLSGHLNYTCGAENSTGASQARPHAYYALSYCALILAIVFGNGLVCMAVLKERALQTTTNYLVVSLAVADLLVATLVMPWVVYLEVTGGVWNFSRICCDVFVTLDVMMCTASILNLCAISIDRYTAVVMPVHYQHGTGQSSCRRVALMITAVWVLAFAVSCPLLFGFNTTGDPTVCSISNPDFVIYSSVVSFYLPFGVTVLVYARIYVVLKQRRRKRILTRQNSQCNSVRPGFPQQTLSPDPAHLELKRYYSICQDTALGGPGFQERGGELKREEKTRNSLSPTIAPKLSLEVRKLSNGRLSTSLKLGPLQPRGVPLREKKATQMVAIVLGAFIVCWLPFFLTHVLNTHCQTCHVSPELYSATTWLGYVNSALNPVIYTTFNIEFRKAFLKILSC

[22] = molecular target: Delta-type opioid receptor (Homo sapiens, UniProt P41143); conditions: Compound concentration 10.0 uM
Chain of Delta-type opioid receptor (P41143 whole entry): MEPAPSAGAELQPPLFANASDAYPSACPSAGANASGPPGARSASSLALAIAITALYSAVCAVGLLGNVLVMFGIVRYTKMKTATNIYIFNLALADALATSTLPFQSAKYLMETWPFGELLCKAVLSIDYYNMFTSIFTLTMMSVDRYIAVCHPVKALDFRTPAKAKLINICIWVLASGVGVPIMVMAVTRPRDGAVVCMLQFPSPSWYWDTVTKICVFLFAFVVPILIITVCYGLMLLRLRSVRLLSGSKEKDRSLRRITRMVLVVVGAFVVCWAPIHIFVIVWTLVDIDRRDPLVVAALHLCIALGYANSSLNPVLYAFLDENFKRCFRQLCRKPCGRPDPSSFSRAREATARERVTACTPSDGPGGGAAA

[23] = molecular target: Dual specificity mitogen-activated protein kinase kinase 4 (Homo sapiens) (UniProt P45985); conditions: Compound concentration 1000.0 nM
[24] = molecular target: Serine/threonine-protein kinase Nek9 (Homo sapiens) (UniProt Q8TD19); conditions: Compound concentration 1000.0 nM
[25] = molecular target: Mitogen-activated protein kinase kinase kinase 7 (Homo sapiens) (UniProt O43318); conditions: Compound concentration 1000.0 nM
[26] = molecular target: Calcium/calmodulin-dependent protein kinase type II subunit alpha (Homo sapiens) (UniProt Q9UQM7); conditions: Compound concentration 1000.0 nM
[27] = molecular target: Calcium/calmodulin-dependent protein kinase type 1D (Homo sapiens) (UniProt Q8IU85); conditions: Compound concentration 1000.0 nM
Chain of Calcium/calmodulin-dependent protein kinase type 1D (Homo sapiens) (Q8IU85 whole entry, looked up): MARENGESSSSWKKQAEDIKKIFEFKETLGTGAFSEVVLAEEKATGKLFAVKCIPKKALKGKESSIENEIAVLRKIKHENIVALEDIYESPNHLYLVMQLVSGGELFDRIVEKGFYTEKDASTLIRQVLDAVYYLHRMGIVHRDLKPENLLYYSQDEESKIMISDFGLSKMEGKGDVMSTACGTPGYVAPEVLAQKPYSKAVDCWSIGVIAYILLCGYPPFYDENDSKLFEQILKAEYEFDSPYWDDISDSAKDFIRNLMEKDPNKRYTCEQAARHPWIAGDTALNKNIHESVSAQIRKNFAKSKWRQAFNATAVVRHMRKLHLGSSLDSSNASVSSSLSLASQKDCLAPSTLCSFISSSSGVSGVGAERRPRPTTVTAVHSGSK

[28] = test system: Receptor-type tyrosine-protein kinase FLT3 (Homo sapiens), P36888 [D835H]; conditions: Compound concentration 1000.0 nM
[29] = molecular target: Ribosomal protein S6 kinase alpha-5 (Homo sapiens) (UniProt O75582); conditions: Compound concentration 1000.0 nM
Chain of Ribosomal protein S6 kinase alpha-5 (Homo sapiens) (O75582 whole entry, looked up): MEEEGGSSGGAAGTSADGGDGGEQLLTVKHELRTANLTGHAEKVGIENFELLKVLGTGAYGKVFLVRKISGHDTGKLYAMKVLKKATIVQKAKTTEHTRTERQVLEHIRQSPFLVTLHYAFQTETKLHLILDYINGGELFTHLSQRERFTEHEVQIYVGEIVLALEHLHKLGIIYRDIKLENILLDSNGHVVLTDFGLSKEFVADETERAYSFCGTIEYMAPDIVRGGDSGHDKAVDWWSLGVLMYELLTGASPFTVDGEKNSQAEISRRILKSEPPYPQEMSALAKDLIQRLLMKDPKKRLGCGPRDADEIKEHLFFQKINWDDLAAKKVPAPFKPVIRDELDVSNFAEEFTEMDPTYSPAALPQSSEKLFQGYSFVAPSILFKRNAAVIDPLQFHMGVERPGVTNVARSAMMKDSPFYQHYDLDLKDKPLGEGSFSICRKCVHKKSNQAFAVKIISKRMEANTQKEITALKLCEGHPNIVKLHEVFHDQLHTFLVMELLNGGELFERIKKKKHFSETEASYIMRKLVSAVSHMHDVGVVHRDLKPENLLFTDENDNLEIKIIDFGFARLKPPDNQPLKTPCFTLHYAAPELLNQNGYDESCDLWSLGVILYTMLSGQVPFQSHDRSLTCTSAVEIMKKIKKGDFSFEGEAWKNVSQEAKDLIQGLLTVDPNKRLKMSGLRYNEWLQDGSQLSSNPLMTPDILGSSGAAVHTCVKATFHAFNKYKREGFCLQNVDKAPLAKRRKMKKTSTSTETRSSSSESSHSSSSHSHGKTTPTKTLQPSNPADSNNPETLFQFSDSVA

[30] = molecular target: Beta-2 adrenergic receptor (Homo sapiens) (UniProt P07550); conditions: Compound concentration 10.0 uM
[31] = molecular target: Mitogen-activated protein kinase kinase kinase 10 (Homo sapiens) (UniProt Q02779); conditions: Compound concentration 1000.0 nM
[32] = molecular target: ALK tyrosine kinase receptor (Homo sapiens) (UniProt Q9UM73); conditions: Compound concentration 1000.0 nM
[33] = molecular target: Cyclin-dependent kinase 18 (Homo sapiens) (UniProt Q07002); conditions: Compound concentration 1000.0 nM
[34] = molecular target: Cyclin-dependent kinase 2 homolog (Plasmodium falciparum (isolate 3D7)) (UniProt P61075); conditions: Compound concentration 1000.0 nM
[35] = test system: Phosphatidylinositol 4,5-bisphosphate 3-kinase catalytic subunit alpha isoform (Homo sapiens), P42336 [E542K]; conditions: Compound concentration 1000.0 nM

Molecule `CN(C)CC#Cc1ccc(OCCCc2sc(N3CCc4cccc(C(=O)Nc5nc6ccccc6s5)c4C3)nc2C(=O)O)c(F)c1` [A-1155463] has a residual activity [1] of 100%, a residual activity [2] of 97% and an inhibition [3] of 7.32%. It also gave a residual activity [4] of 95%, a residual activity [5] of 75% and a residual activity [6] of 100%. It also gave a residual activity [7] of 100%, a residual activity [8] of 97% and a residual activity [9] of 100%. The residual activity [10] was 88%, the residual activity [11] was 100% and the inhibition [12] was 31.5%. For the same molecule, the residual activity [13] was 87%, the residual activity [14] was 76% and the residual activity [15] was 89%. For the same molecule, the residual activity [16] was 100%, the residual activity [17] was 100% and the residual activity [18] was 89%. The residual activity [19] was 100%, the residual activity [20] was 100% and the inhibition [21] was 2.01%. For the same molecule, the inhibition [22] was 54.6%, the residual activity [23] was 100% and the residual activity [24] was 95%. For the same molecule, the residual activity [25] was 100%, the residual activity [26] was 64% and the residual activity [27] was 90%. For the same molecule, the residual activity [28] was 93%, the residual activity [29] was 90% and the inhibition [30] was 27.1%. For the same molecule, the residual activity [31] was 100%, the residual activity [32] was 100% and the residual activity [33] was 100%. The residual activity [34] was 100% and the residual activity [35] was 72%.
